{"source": "patent US7422862B2", "about": "“Methods for identifying modulators of apoptosis” (The Burnham Institute, priority 2001, dated 2008)", "assay_type_in_all_cases": "cell-based", "key": {"endogenous Humanin": {"system": "endogenous Humanin", "test": "siRNA knock-down of endogenous Humanin in SF268 cells (immunoblotting)", "method": "(§1) (A-D) CMS14.1 neuronal cells were transfected with plasmids encoding Flag-HN peptide or Flag-control (27-amino-acid) peptide, together with GFP-encoding plasmid at 4:1 ratio. Cells were either cultured without further treatment (open bars) or subjected to various apoptotic stimuli for various times (dark bars), including (A) STS for 8 h (dark symbols=Flag-control; open symbols=Flag-HN), (B) Serum-deprivation for 72 h, (C) 10 joules/m2 Uvirradiation followed by 24 h culture, and (D) 50 ng/ml TNFa in […] for 24 h. Cells were then fixed and stained with DAPI to determine the percentage of apoptotic cells, evaluating=200 GFP-positive cells per sample (mean±SD; n=3). (inset) Lysates prepared from replicate cultures of transfected cells were normalized for total protein content and analyzed by immunoblotting using anti-Flag (top) and anti-tubulin (bottom) antibodies, confirming production of similar amounts of Flag-control and Flag-HN peptides. […] (Upper panel) After 72 hr, cell lysates were prepared and 100 ug was analyzed by immunoblotting using anti-HN and anti-tubulin (as a loading control) antibodies. (Lower panel) At 72 hr after siRNA transfection, SF268 cells were cultured with 0.1 μM STS for 8 hrs, then % apoptosis was determined (mean+std dev; n=3). […] Apoptosis (%) was measured 48 hrs later among GFP-positive cells. […]"}, "SF268 cells": {"system": "SF268 cells", "test": "STS-induced apoptosis in siRNA-transfected SF268 cells", "details": "0.1 μM STS 8 hrs", "method": "as §1"}, "endogenous Bax protein": {"system": "endogenous Bax protein", "test": "Subcellular fractionation and immunoblot of endogenous Bax after STS", "details": "SF268 cells, Humanin knocked-down by siRNA", "method": "(A-B) Humanin peptide prevents STS-induced Bax translocation in vivo. Cos-7 cells were first transfected with GFP-Bax plasmids. After 24 hrs, untagged wild-type or C8P mutant Humanin peptides were introduced into cells using ChariotTM reagent, and 2 h later cells were treated with 1 μM STS. After 4 h, the percentage of cells with translocated Bax was determined (mean±SD; n=3) by confocal microscopy (A) and representative photomicrographs (B). (C) Wild-type or C8P mutant Humanin peptides were introduced into Cos7 cells using ChariotTM reagent. Cytosolic (C) and mitochondria-containing (M) fractions were isolated by differential centrifugation 23 and analyzed by immunoblotting using anti-Bax (top), Hsp60 (middle) (mitochondrial marker), or Tubulin (bottom) (cytosol marker) antibodies. (D) HN or mutant control double-strand siRNAs were transfected into SF268 cells. After 48 h, cells were cultured without (Control) or with 0.1 uM STS. After 24 hr, cells were fractionated and analyzed by immunoblotting as above. […] After 3 h at 30° C., mitochondria were centrifuged and the resulting pellets (P) and supernatants (S) were analyzed by immunoblotting using anti-Cytochrome c (top), Hsp60 (middle), and Bax (bottom) antibodies. […]\nThese findings were also confirmed by subcellular fractionation, where cytosol and mitochondria-enriched heavy membrane preparations were prepared from Cos7 cells transduced with untagged Humanin or Humanin(C8P) peptides, and the relative amounts of endogenous Bax protein in these two fractions were measured by immunoblot analysis of samples normalized for cell-equivalents. […] Differences in the relative potency of Humanin at blocking Bax translocation as measured by microscopy (FIG. 7A) versus cell fractionation methods (FIG. 7C) can be explained by differences in the sensitivity of the assays, or could possibly indicate that even in cells where some Bax translocation has occurred, less of the total Bax protein associated with mitochondria. […]"}}, "note": "d = 2'-deoxy (DNA); r = 2'-OH (RNA)"}
{"substance": "Humanin siRNA: double-strand siRNA, sense r(CCAGUGAAAUUGACCUGCC)d(TT), SEQ ID NO:25/26 (sense CCAGUGAAAUUGACCUGCCNN; antisense GGCAGGUCAAUUUCACUGGNN; sugars from the 5' end r19 d2, backbone and the base at N not given here)", "values": [{"measurement": "endogenous levels of Humanin peptide", "setting": "endogenous Humanin", "result": "reduced"}, {"measurement": "sensitivity to STS-induced apoptosis", "setting": "SF268 cells", "result": "increased"}, {"measurement": "STS-induced translocation of Bax to membranes", "setting": "endogenous Bax protein", "result": "enhanced"}]}
